Measured values as given in patent US11400059B2, “Treatment of pain and/or pain related symptoms associated with dysmenorrhea” (ALYRA BIOTECH PTY LTD, priority 2017, dated 2022).

Experiments:
Assay type in all cases: cell-based
[1] = target: T1, hTLR7 (Homo sapiens, UniProt Q9NYK1); experiment: Human TLR antagonist screening, NF-κB SEAP reporter in HEK293 cells; settings: antagonist mode, test article 1 μM, +CL307 10 ng/ml, No Sample 13, Control− 1
T1 construct: expressed in transfected cells; host or cells: HEK293
T1 sequence (Q9NYK1 27-1049): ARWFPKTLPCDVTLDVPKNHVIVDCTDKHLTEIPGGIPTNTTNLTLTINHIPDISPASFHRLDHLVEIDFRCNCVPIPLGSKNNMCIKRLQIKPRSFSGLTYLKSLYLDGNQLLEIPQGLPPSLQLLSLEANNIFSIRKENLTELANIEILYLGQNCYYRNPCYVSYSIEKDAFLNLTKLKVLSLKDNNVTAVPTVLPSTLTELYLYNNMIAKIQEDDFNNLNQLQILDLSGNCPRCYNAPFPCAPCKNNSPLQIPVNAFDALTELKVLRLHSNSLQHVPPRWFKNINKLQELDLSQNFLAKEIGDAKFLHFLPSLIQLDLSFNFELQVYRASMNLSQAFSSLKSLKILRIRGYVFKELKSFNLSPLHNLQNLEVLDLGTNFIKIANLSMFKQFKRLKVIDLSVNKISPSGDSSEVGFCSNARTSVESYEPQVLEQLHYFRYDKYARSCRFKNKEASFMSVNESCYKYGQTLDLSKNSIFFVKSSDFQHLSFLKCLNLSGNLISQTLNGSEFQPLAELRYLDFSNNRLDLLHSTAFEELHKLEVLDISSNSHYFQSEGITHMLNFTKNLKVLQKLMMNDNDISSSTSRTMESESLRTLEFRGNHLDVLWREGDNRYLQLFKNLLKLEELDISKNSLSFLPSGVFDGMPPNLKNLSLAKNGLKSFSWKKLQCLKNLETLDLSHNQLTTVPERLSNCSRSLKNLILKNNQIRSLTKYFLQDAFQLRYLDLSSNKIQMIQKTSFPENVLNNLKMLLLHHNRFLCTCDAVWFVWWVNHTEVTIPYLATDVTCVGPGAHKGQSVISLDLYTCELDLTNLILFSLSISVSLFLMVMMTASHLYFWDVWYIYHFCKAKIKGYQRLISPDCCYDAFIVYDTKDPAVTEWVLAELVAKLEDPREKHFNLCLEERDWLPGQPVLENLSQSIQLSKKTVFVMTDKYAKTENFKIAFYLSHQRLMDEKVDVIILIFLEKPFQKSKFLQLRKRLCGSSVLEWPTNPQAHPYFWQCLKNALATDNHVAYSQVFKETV
Description: Toll-Like Receptor (TLR), NOD-Like Receptor (NLR) and C-Type Lectin Receptor (CLR) stimulation were tested by assessing NF-κB activation in HEK293 cells expressing a given TLR, NLR or CLR. The activity of the test articles was tested at one concentration and compared to control ligands. These steps were performed in triplicate. hTLR7: CL307 at 1 μg/mL Antagonist: 10 ng/mL. In a 96-well plate (200 μL total volume) containing the appropriate cells (50,000-75,000 cells/well), 20 μL of the test article or the positive control ligand was added to the wells. For the antagonist assay, the test article was incubated with the cells, at 37° C. with 5% CO2, for 30 minutes prior to the addition of the positive control ligand to the wells. The media added to the wells was designed for the detection of NF-κB induced SEAP expression. […] Fold induction (ratio of average induced value to average non-induced value) was determined for each TLR, NOD1, NOD2, Dectin-1a, Dectin-1b.

[2] = system: HEK293/Null1 and HEK293/Null2; experiment: Antagonist screening on TLR−/NLR− control cell lines stimulated with TNFa; settings: stimulated with TNFa at 10 ng/mL
Description: (§1) Toll-Like Receptor (TLR), NOD-Like Receptor (NLR) and C-Type Lectin Receptor (CLR) stimulation were tested by assessing NF-κB activation in HEK293 cells expressing a given TLR, NLR or CLR. The activity of the test articles was tested at one concentration and compared to control ligands. These steps were performed in triplicate. In a 96-well plate (200 μL total volume) containing the appropriate cells (50,000-75,000 cells/well), 20 μL of the test article or the positive control ligand was added to the wells. For the antagonist assay, the test article was incubated with the cells, at 37° C. with 5% CO2, for 30 minutes prior to the addition of the positive control ligand to the wells. The media added to the wells was designed for the detection of NF-κB induced SEAP expression. After a 16-24 hr incubation the optical density (OD) was read at 650 nm on a Molecular Devices SpectraMax 340PC absorbance detector.

[3] = target: T2, Human TLR4 (Homo sapiens, UniProt O00206+Q9Y6Y9); experiment: Human TLR antagonist screening, NF-κB SEAP reporter in HEK293 cells; settings: antagonist mode, test article 1 μM, +LPS-EK 10 ng/mL, No Sample 14, Control− 1
T2 construct: expressed in transfected cells; host or cells: HEK293
T2 sequence (O00206 24-839): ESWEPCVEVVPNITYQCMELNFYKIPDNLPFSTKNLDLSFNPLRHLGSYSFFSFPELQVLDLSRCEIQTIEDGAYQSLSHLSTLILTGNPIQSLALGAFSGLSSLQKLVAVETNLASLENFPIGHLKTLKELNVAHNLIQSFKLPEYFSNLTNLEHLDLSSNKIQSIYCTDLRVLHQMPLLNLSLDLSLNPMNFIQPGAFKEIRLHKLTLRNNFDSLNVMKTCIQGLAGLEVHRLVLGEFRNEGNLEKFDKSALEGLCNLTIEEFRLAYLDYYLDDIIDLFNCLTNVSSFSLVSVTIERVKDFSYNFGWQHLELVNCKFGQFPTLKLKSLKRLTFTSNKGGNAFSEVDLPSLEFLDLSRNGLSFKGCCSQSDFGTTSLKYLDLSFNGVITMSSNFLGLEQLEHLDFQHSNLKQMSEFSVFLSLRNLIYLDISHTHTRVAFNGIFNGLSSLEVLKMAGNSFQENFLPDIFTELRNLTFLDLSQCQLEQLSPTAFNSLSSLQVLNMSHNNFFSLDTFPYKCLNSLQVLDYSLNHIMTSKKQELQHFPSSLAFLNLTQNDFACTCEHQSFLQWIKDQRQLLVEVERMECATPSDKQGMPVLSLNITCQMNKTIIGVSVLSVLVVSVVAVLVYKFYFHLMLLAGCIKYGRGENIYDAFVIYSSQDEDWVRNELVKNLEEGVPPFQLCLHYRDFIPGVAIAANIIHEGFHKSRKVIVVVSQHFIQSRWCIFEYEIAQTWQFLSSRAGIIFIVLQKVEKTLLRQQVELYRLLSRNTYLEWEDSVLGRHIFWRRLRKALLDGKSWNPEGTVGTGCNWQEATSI
T2 sequence (Q9Y6Y9 19-160): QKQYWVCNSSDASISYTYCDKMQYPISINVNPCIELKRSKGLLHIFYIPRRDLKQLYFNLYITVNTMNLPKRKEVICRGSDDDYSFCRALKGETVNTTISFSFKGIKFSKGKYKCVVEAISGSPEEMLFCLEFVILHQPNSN
Description: as §1, with “triplicate. hTLR4: […]” for “triplicate.”, “detector. Fold induction (ratio of average induced value to average non-induced value) was determined for each TLR, NOD1, NOD2, Dectin-1a, Dectin-1b.” for “detector.”

CN(C)CCC=C1c2ccccc2CCc2ccccc21 [Amitriptyline]
Fold Induction [1]: slight potentiating effect | Fold Induction ([1]; listed as Ami): 16 | effect on TLR−/NLR− control cell lines [2]: slight inhibitory effect | Fold Induction [3]: slight inhibitory effect | Fold Induction ([3]; listed as Ami): 12

CNCCC=C1c2ccccc2CCc2ccccc21 [Nortriptyline]
Fold Induction [1]: slight potentiating | Fold Induction ([1]; listed as Nor): 16 | effect on TLR−/NLR− control cell lines [2]: slight inhibitory effect | Fold Induction [3]: 14
